The source of these data is patent publication US6838096B2, “Black soybean polysaccharides” (Taipei Veterans General Hospital, priority 2001, dated 2005).

The subject of data set [1] is BALB/c mice. The data set can be described thus: Myelopoietic activity in 5-FU-treated BALB/c mice with or without CT26 tumor implantation. It counts as in vivo. The conditions noted are these: 5-FU 150 mg/kg i.p. How it is done: BALB/c mice (6-10 weeks old, 20±5 g) were obtained and kept in specific pathogen-free conditions with a controlled temperature and humidity, under a 12-h light/dark cycle, and given free access to food and water. All experiments were performed in accordance with the guidelines provided in the NIH Guide for the Care and Use of Laboratory Animals (DHHS publication No. NIH 85-23, revised 1996). CT26 murine colon adenocarcinoma and BALB/c syngenic were maintained in RPMI 1640 medium (Life technology, Grand Island, N.Y.) supplemented with 10% heat-inactivated FCS (HyClone, Logan, Utah) and 2 mM L-glutamine (Sigma, St. Louis, Mo.), and cultured at 37° C. in a humidified atmosphere containing 5% CO2. These cells were subcutaneously implanted into left flank of BALB/c mice.
For non-tumor implanted experiments, 5-FU (150 mg/kg body weight) was intraperitoneally (i.p.) injected into BALB/c mice on day 0, and PSBS (100 or 400 mg/kg body weight) was given by oral or interperitoneal administration daily once for 5 consecutive days 6 h after 5-FU injection. Mice in control group received normal saline at the same time. While in tumor-implanted model, 1×10^6 CT26 tumor cells in PBS per mouse was s.c. injected in the left flank of mice. […]

Data set [2] relates to 5-FU-treated mice.

Each structure is given as a SMILES string.

Consider `O=c1[nH]cc(F)c(=O)[nH]1` [5-FU, 5-fluorouracil], for which the number of leukocytes result in data set [1] was “significantly reduced”; in data set [2] (mouse, in vivo, ip, 150 mg/kg) it was “significantly decreased”. This compound also returned a CFU-GM colony numbers in data set [2] (5-FU alone, single dose 150 mg/kg i.p., day 11) of 41±5 colonies. Also, the myelosuppression entry in data set [2] (mouse, in vivo, ip, 150 mg/kg) was “apparent myelosuppression”.
